Reference: patent US7759373B2, “Large conductance calcium-activated K channel opener” (Mitsubishi Tanabe Pharma Corporation, priority 2001, dated 2010)

Key:
[1] = tested on: isolated rabbit urinary bladder; assay: Relaxation effect on potassium-induced contraction of isolated rabbit urinary bladder; format: cell-based; conditions: Oryctolagus cuniculus; 50% relaxation concentration; high-K+ (30 mM) pre-contracted rabbit bladder strips; relaxation as percentage of the maximum produced by 0.1 mM papaverine; read-out: EC50 value range
Method: Relaxation effect on potassium-induced contraction of isolated rabbit urinary bladder
Urinary bladder was isolated from Male NZW rabbits (2.0-3.5 kg) and immersed in ice-cold Krebs-bicarbonate solution (in mM: 118 NaCl, 4.7 KCl, 1.2, 2.5 CaCl2, MgSO4, 1.2 KH2PO4, 11 glucose, 25 NaHCO3). The urinary bladder was cut into longitudinal strips (5 mm length, 3-4 mm width) after mucosal layer was removed. Preparations were mounted in organ baths containing 10 ml of Krebs solution maintained at 37° C. and gassed with 95% O2/5% CO2. Accordingly, preparations were stretched with an initial tension of 2.0±1.0 g, and changes in isometric tension were measured by force-displacement transducer. The preparations were pre-contracted by changing organ-bath solution into high-K^+ (30 mM) Krebs solution (in mM: 92.7 NaCl, 30 KCl, 1.2, 2.5 CaCl2, MgSO4, 1.2 KH2PO4, 11 glucose, 25 NaHCO3).
After stable tension was obtained, compounds were added into organ baths cumulatively (10^−8M-10^−4M). The effects of compounds were expressed as a percentage of the maximum relaxation produced by 0.1 mM papaverine. 50% relaxation concentration (EC50) was calculated and EC50 value range (μM) of the compounds of the present invention was shown in the following Table 64 with a rank of A, B or C. These ranges are as mentioned below. 3≧C≧1≧B≧0.5≧A

[2] = tested on: rhythmic bladder contractions induced by substance P; assay: Inhibitory effect on the rhythmic bladder contractions induced by substance P in anesthetized rats; format: in vivo, rat; conditions: time during which frequency of rhythmic contraction was completely inhibited, 0.25 mg/kg of the compound, substance P infusion
Summary of the method: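 Value is duration (min) of complete inhibition of bladder contractions, ranked A/B/C at 20 and 10 min cut-offs. Intravenous dosing (0.5% Tween 80 saline) in female SD rats under urethane, bladder saline-filled and contractions maintained by substance P infusion, 0.33 μg/kg/min.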

Compound | EC50 [1] | 100% inhibition time range [2]
Cn1ccc2cc(-c3nc(CC(=O)O)c(-c4ccc(Cl)s4)o3)ccc21 [Preparation Example 469] | 1000 to 3000 nM | B (A≧20>B≧10>C (minute))
CCc1nc(-c2cccc(Cl)c2)[nH]c1-c1cccnc1 [Preparation example 13] | ≤ 500 nM | C (A≧20>B≧10>C (minute))
O=C(O)Cc1nc(-c2ccc(F)cc2)oc1-c1ccc(Cl)c(F)c1 [Preparation Example 253] | 500 to 1000 nM | A (A≧20>B≧10>C (minute))
O=C(O)Cc1nc(-c2ccc(F)cc2)oc1-c1ccc(F)cc1 [Preparation Example 235] | 500 to 1000 nM | B (A≧20>B≧10>C (minute))
CN(C)c1ncc(-c2nc(-c3ccc(Cl)s3)c(CC(=O)O)o2)cn1 [Preparation Example 512] | 500 to 1000 nM | B (A≧20>B≧10>C (minute))
CCCc1nc(-c2csc(Cl)c2)[nH]c1-c1ccccc1 [Preparation example 34] | 1000 to 3000 nM | A (A≧20>B≧10>C (minute))
O=C(O)Cc1nc(-c2ccc3occc3c2)oc1-c1cc(Cl)cs1 [Preparation Example 288] | ≤ 500 nM | C (A≧20>B≧10>C (minute))
O=C(O)Cc1nc(-c2ccc(F)cc2)oc1-c1ccc(C(F)(F)F)cc1 [Preparation Example 244] | 1000 to 3000 nM | B (A≧20>B≧10>C (minute))
Cc1nc(-c2ccc(F)cc2)[nH]c1-c1cccnc1 [Preparation Example 187] | 500 to 1000 nM | B (A≧20>B≧10>C (minute))
CCOc1ccc(-c2nc(-c3ccc(Cl)s3)c(CC(=O)O)s2)cn1 [Preparation Example 586] | ≤ 500 nM | B (A≧20>B≧10>C (minute))
O=C(O)Cc1nc(-c2cc3ccccc3o2)oc1-c1ccc(Cl)s1 [Preparation Example 435] | 500 to 1000 nM | B (A≧20>B≧10>C (minute))
COc1ccc(-c2nc(-c3ccc(Cl)cc3)c(CC(=O)O)o2)cc1 [Preparation Example 517] | ≤ 500 nM | C (A≧20>B≧10>C (minute))
O=C([O-])Cc1nc(-c2ccc(F)cc2)oc1-c1ccc(Cl)s1.[Na+] [Preparation Example 152, 5-(5-chloro-thiophen-2-yl)-2-(4-fluorophenyl)oxazol-4-yl acetic acid sodium salt] | 1000 to 3000 nM | B (A≧20>B≧10>C (minute))
O=C(O)Cc1nc(-c2ccc3ncccc3c2)oc1-c1ccc(Cl)s1 [Preparation Example 284] | 1000 to 3000 nM | B (A≧20>B≧10>C (minute))
O=C(O)Cc1nc(-c2ccc(F)cc2)oc1-c1ccc(Cl)cc1 [Preparation Example 243] | ≤ 500 nM | A (A≧20>B≧10>C (minute))
COc1ccc(-c2nc(CC(=O)O)c(-c3ccc(Cl)s3)o2)cc1Cl [Preparation Example 280] | ≤ 500 nM | C (A≧20>B≧10>C (minute))
CCc1nc(-c2ccc(Cl)s2)[nH]c1-c1cccnc1 [Preparation example 14] | 1000 to 3000 nM | A (A≧20>B≧10>C (minute))
O=C(O)Cc1nc(-c2ccc3occc3c2)oc1-c1csc(Cl)c1 [Preparation Example 287] | ≤ 500 nM | B (A≧20>B≧10>C (minute))
O=C(O)Cc1nc(-c2cc3ccccc3s2)oc1-c1ccc(Cl)s1 [Preparation Example 271] | 500 to 1000 nM | C (A≧20>B≧10>C (minute))
Cc1cc(-c2nc(CC(=O)O)c(-c3ccc(Cl)s3)s2)sc1C [Preparation Example 612] | ≤ 500 nM | A (A≧20>B≧10>C (minute))
O=C(O)Cc1nc(-c2ccccc2)oc1-c1ccc(Cl)s1 [Preparation Example 279] | ≤ 500 nM | C (A≧20>B≧10>C (minute))
Cn1c(-c2oc(-c3ccc(F)cc3)nc2CC(=O)O)cc2ccccc21 [Preparation Example 249] | 1000 to 3000 nM | B (A≧20>B≧10>C (minute))
Cc1cc(-c2nc(CC(=O)O)c(-c3ccc(Cl)s3)o2)on1 [Preparation Example 278] | 500 to 1000 nM | B (A≧20>B≧10>C (minute))
CCCc1nc(-c2ccc(F)cc2)[nH]c1-c1cccc(F)c1 [Preparation example 99] | 500 to 1000 nM | B (A≧20>B≧10>C (minute))

Compound | EC50 [1] | 100% inhibition time range [2]
CN1CCc2cc(-c3nc(CC(=O)O)c(-c4ccc(Cl)s4)o3)ccc21 [Preparation Example 453] | 500 to 1000 nM | C (A≧20>B≧10>C (minute))
CN(c1ccc(-c2nc(CC(=O)O)c(-c3ccc(Cl)s3)o2)cn1)C1CC1 [Preparation Example 531] | 1000 to 3000 nM | C (A≧20>B≧10>C (minute))
CCc1nc(-c2ccc(C#N)s2)[nH]c1-c1cccnc1 [Preparation example 16] | 1000 to 3000 nM | B (A≧20>B≧10>C (minute))
CSc1ccc(-c2nc(CC(=O)O)c(-c3ccc(Cl)s3)o2)cc1 [Preparation Example 281] | ≤ 500 nM | C (A≧20>B≧10>C (minute))
O=C(O)Cc1nc(-c2ccc(Cl)cc2)oc1-c1ccc(Br)s1 [Preparation Example 245] | 1000 to 3000 nM | C (A≧20>B≧10>C (minute))
Cc1nc(-c2ccc(F)cc2)[nH]c1-c1ccsc1 [Preparation Example 168] | 500 to 1000 nM | B (A≧20>B≧10>C (minute))
CN(C)c1ccc(-c2nc(-c3ccc(Cl)cc3)c(CC(=O)O)s2)cn1 [Preparation Example 576] | 500 to 1000 nM | A (A≧20>B≧10>C (minute))
O=C(O)Cc1nc(-c2ccc(F)cc2)oc1-c1ccc[nH]1 [Preparation Example 524] | 1000 to 3000 nM | B (A≧20>B≧10>C (minute))
FCCc1nc(-c2ccc(F)cc2)[nH]c1-c1ccccc1 [Preparation Example 182] | ≤ 500 nM | B (A≧20>B≧10>C (minute))
O=C(O)Cc1nc(-c2ccc(F)cc2)oc1-c1ccc(Cl)c(Cl)c1 [Preparation Example 240] | 500 to 1000 nM | C (A≧20>B≧10>C (minute))
CCCc1nc(-c2ccc(F)cc2)[nH]c1-c1ccc(F)cc1 [Preparation example 87] | 1000 to 3000 nM | B (A≧20>B≧10>C (minute))
O=C(O)Cc1sc(-c2cc3ccccc3s2)nc1-c1ccc(Cl)cc1 [Preparation Example 574] | 1000 to 3000 nM | B (A≧20>B≧10>C (minute))
CCCc1nc(-c2ccc(F)cc2)[nH]c1-c1ccccc1 [Preparation example 88] | 1000 to 3000 nM | B (A≧20>B≧10>C (minute))
CSc1ncc(-c2nc(-c3ccc(Cl)s3)c(CC(=O)O)s2)cn1 [Preparation Example 572] | 1000 to 3000 nM | C (A≧20>B≧10>C (minute))
COc1ccc(-c2nc(CC(=O)O)c(-c3ccc(F)c(F)c3)o2)cc1 [Preparation Example 246] | 500 to 1000 nM | B (A≧20>B≧10>C (minute))
Cc1nc(-c2csc(Cl)c2)[nH]c1-c1cccnc1 [Preparation example 54] | 1000 to 3000 nM | B (A≧20>B≧10>C (minute))
CSCc1nc(-c2ccc(C#N)cc2)[nH]c1-c1ccccc1 [Preparation example 132] | 500 to 1000 nM | B (A≧20>B≧10>C (minute))
O=C(O)Cc1nc(-c2ccc(F)cc2)oc1-c1ccsc1 [Preparation Example 197] | 1000 to 3000 nM | C (A≧20>B≧10>C (minute))
O=C(O)Cc1nc(-c2ccc(F)cc2)oc1-c1csc(Cl)c1 [Preparation Example 286] | ≤ 500 nM | C (A≧20>B≧10>C (minute))
CCCc1nc(-c2cccc(F)c2)[nH]c1-c1ccccc1 [Preparation example 30] | 1000 to 3000 nM | B (A≧20>B≧10>C (minute))
CN(C)c1ccc(-c2nc(-c3ccc(Cl)cc3)c(CC(=O)O)o2)cn1 [Preparation Example 514] | 500 to 1000 nM | B (A≧20>B≧10>C (minute))
CN(C)c1ncc(-c2nc(CC(=O)O)c(-c3ccc(Cl)cc3)o2)cn1 [Preparation Example 473] | 500 to 1000 nM | A (A≧20>B≧10>C (minute))
CSc1ncc(-c2nc(CC(=O)O)c(-c3ccc(Cl)c(F)c3)o2)cn1 [Preparation Example 462] | 500 to 1000 nM | C (A≧20>B≧10>C (minute))
O=C(O)Cc1nc(-c2ccc(Cl)cc2)oc1-c1ccc(Cl)s1 [Preparation Example 275] | ≤ 500 nM | A (A≧20>B≧10>C (minute))
